The source of these data is US11780826B2 (Amgen Inc., priority 2017, dated 2023).

In this assay the test system is Bovine cardiac myofibrils. Description: In vitro model of dose-dependent myofibril ATPase modulation (AC1.4, pyruvate kinase/lactate dehydrogenase-coupled ATPase assay at pCa25). The class given is biochemical. The following applies: concentration at which ATPase activity was 1.4-fold higher than the bottom of the dose curve, mean of a minimum of two independent tests. In a few lines:
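We measure calcium-buffered ATPase activity of detergent-skinned bovine cardiac myofibrils at pH 6.80 and 22° C with 1 mM ATP, using a PK/LDH-coupled NADH readout at 340 nm. Values come from four-parameter dose-response fits, averaged over at least two independent runs.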
In turn, `CC(C)(C(N)=O)c1cccc(C(=O)N2[C@@H](C(=O)N[C@@H](c3ccc(C(F)(F)F)cc3F)C3COC3)C[C@H]3C[C@H]32)c1` [Example 497, (1R,3R,5R)-2-(3-(1-amino-2-methyl-1-oxopropan-2-yl)benzoyl)-N—((R)-(2-fluoro-4-(trifluoromethyl)phenyl)(oxetan-3-yl)methyl)-2-azabicyclo[3.1.0]hexane-3-carboxamide] returned an AC1.4 of 2.3075 µM.

The compound `N#CC1CN(S(=O)(=O)c2cccc(C(=O)N3CCC[C@@H]3C(=O)NCc3ccc(C(F)(F)F)nc3)c2)C1` [Example 131, 1-((3-((3-cyano-1-azetidinyl)sulfonyl)phenyl)carbonyl)-N-((6-(trifluoromethyl)-3-pyridinyl)methyl)-D-prolinamide] registered an AC1.4 of 0.2158 µM.

`CS(=O)(=O)c1cccc(C(=O)N2C[C@H]3C[C@H]3[C@@H]2C(=O)N[C@@H](c2ccc(C(F)(F)F)cc2F)C2CC2)c1` [Example 407, (1R,2R,5S)-N-((R)-cyclopropyl(2-fluoro-4-(trifluoromethyl)phenyl)methyl)-3-(3-(methylsulfonyl)benzoyl)-3-azabicyclo[3.1.0]hexane-2-carboxamide] showed an AC1.4 of 1.427 µM.

For the compound `N#CC1CN(S(=O)(=O)N2CCC[C@H](C(=O)N3CCC[C@@H]3C(=O)NCc3cccc(F)c3F)C2)C1` [Example 516, 1-(((3S)-1-((3-cyano-1-azetidinyl)sulfonyl)-3-piperidinyl)carbonyl)-N-(2,3-difluorobenzyl)-D-prolinamide], the AC1.4 is 2.446 µM.

`NS(=O)(=O)c1cccc(C(=O)N2C[C@@H](F)C[C@@H]2C(=O)N[C@@H](c2ccc(C(F)(F)F)cc2F)C2CC2)c1` [Example 531, (4S)-N-((R)-cyclopropyl(2-fluoro-4-(trifluoromethyl)phenyl)methyl)-4-fluoro-1-(3-sulfamoylbenzoyl)-D-prolinamide] came in with an AC1.4 of 2.553 µM.

With `CCc1ccnc(C(=O)N2[C@@H](C(=O)N[C@@H](c3cc(F)c(Cl)cc3F)C3CC3)C[C@H]3C[C@H]32)c1` [Example 640, (1R,3R,5R)-N-((R)-(4-chloro-2,5-difluorophenyl)(cyclopropyl)methyl)-2-((4-ethyl-2-pyridinyl)carbonyl)-2-azabicyclo[3.1.0]hexane-3-carboxamide], the AC1.4 worked out at 4.2315 µM.

For the compound `CS(=O)(=O)c1cc(F)cc(C(=O)N2[C@@H](C(=O)N[C@@H](c3ccc(C(F)(F)F)cc3F)C3COC3)C[C@H]3C[C@H]32)c1` [Example 219, (1R,3R,5R)-2-(3-fluoro-5-(methylsulfonyl)benzoyl)-N-((R)-(2-fluoro-4-(trifluoromethyl)phenyl)(3-oxetanyl)methyl)-2-azabicyclo[3.1.0]hexane-3-carboxamide], the AC1.4 stood at 0.4808 µM.

`O=C(N[C@@H](c1ccc(C(F)(F)F)cc1F)C1CC1)[C@H]1CCCN1C(=O)c1cccc(C2(F)COC2)c1` [Example 577, N—((R)-cyclopropyl(2-fluoro-4-(trifluoromethyl)phenyl)methyl)-1-(3-(3-fluoro-3-oxetanyl)benzoyl)-D-prolinamide]: the AC1.4 was 3.2945 µM.

Turning to `O=C(NCc1ccc(C(F)(F)F)cc1)[C@H]1CCCN1C(=O)[C@H]1CCCN(S(=O)(=O)N2CC(NC(=O)C(F)(F)F)C2)C1` [Example 489, 1-(((3S)-1-((3-((trifluoroacetyl)amino)-1-azetidinyl)sulfonyl)-3-piperidinyl)carbonyl)-N-(4-(trifluoromethyl)benzyl)-D-prolinamide], the AC1.4 stood at 2.2325 µM.

Consider `CC(C)(C)OC1CN(S(=O)(=O)N2CCC[C@H](C(=O)N3CCC[C@@H]3C(=O)NCc3ccc(C(F)(F)F)cc3)C2)C1` [Example 734, 1-(((3S)-1-((3-tert-butoxy-1-azetidinyl)sulfonyl)-3-piperidinyl)carbonyl)-N-(4-(trifluoromethyl)benzyl)-D-prolinamide], for which the AC1.4 came out at 6.866 µM.

For the compound `CS(=O)(=O)c1cc(C(=O)N2CCC[C@@H]2C(=O)N[C@@H](c2cc(F)c(Cl)cc2F)C2CC2)ccn1` [Example 421, N-((R)-(4-chloro-2,5-difluorophenyl)(cyclopropyl)methyl)-1-((2-(methylsulfonyl)-4-pyridinyl)carbonyl)-D-prolinamide], the AC1.4 amounted to 1.4335 µM.

In the case of `Cc1ccc(CNC(=O)[C@H]2CCCN2C(=O)c2cccc(S(=O)(=O)N3CC(C#N)C3)c2)c(F)c1` [Example 76, 1-((3-((3-cyano-1-azetidinyl)sulfonyl)phenyl)carbonyl)-N-(2-fluoro-4-methylbenzyl)-D-prolinamide], the AC1.4 worked out at 0.1008 µM.

`COc1cccc(C(=O)N2CCC[C@@H]2C(=O)N[C@@H](c2ccc(C(F)(F)F)cc2F)C2CC2)c1` [Example 784, N-((R)-cyclopropyl(2-fluoro-4-(trifluoromethyl)phenyl)methyl)-1-(3-methoxybenzoyl)-D-prolinamide] showed an AC1.4 of 8.852 µM.

Consider `C[C@@H](NC(=O)[C@H]1CCCN1C(=O)[C@H]1CCCN(S(=O)(=O)N2CC(S(C)(=O)=O)C2)C1)c1ccc(F)cc1F` [Example 321, N-((1R)-1-(2,4-difluorophenyl)ethyl)-1-(((3S)-1-((3-(methylsulfonyl)-1-azetidinyl)sulfonyl)-3-piperidinyl)carbonyl)-D-prolinamide], for which the AC1.4 stood at 0.8725 µM.

`CS(=O)(=O)N1CC(c2cccc(C(=O)N3CCC[C@@H]3C(=O)N[C@@H](c3ccc(C(F)(F)F)cc3F)C3CC3)c2)C1` [Example 704]: the AC1.4 was 5.725 µM.

As to `O=C(N[C@@H](c1cc(F)c(C(F)(F)F)cc1F)C1CC1)[C@H]1C[C@H]2C[C@H]2N1C(=O)c1cccc(C(F)(F)F)c1` [Example 115, (1R,3R,5R)-N-((R)-cyclopropyl(2,5-difluoro-4-(trifluoromethyl)phenyl)methyl)-2-(3-(trifluoromethyl)benzoyl)-2-azabicyclo[3.1.0]hexane-3-carboxamide], the AC1.4 was found to be 0.1774 µM.

`Cc1ccc(S(N)(=O)=O)cc1C(=O)N1CCC[C@@H]1C(=O)N[C@@H](c1ccc(C(F)(F)F)cc1F)C1CC1` [Example 716, N-((R)-cyclopropyl(2-fluoro-4-(trifluoromethyl)phenyl)methyl)-1-(2-methyl-5-sulfamoylbenzoyl)-D-prolinamide] came in with an AC1.4 of 6.168 µM.

In turn, `C[C@@H](NC(=O)[C@H]1CCCN1C(=O)[C@@H]1CN(S(=O)(=O)N2CC(C#N)C2)CCN1)c1ccc(C(F)(F)F)cc1F` [Example 144, 1-(((2S)-4-((3-cyano-1-azetidinyl)sulfonyl)-2-piperazinyl)carbonyl)-N-((1R)-1-(2-fluoro-4-(trifluoromethyl)phenyl)ethyl)-D-prolinamide] registered an AC1.4 of 0.2462 µM.

`N#CC1CC(S(=O)(=O)c2cccc(C(=O)N3CCCC[C@@H]3C(=O)NCc3ccc(Cl)nc3)c2)C1` (stereo partly drawn) [Example 620, (2R)-N-((6-chloro-3-pyridinyl)methyl)-1-((3-((cis-3-cyanocyclobutyl)sulfonyl)phenyl)carbonyl)-2-piperidinecarboxamide,(2R)-N-((6-chloro-3-pyridinyl)methyl)-1-((3-((trans-3-cyanocyclobutyl)sulfonyl)phenyl)carbonyl)-2-piperidinecarboxamide] gave an AC1.4 of 3.94 µM.

`CN(C)S(=O)(=O)c1cccc(C(=O)N2CCC[C@@H]2C(=O)N[C@H](c2ccc(Cl)c(F)c2)C2CC2)c1` [Example 408, N-((S)-(4-chloro-3-fluorophenyl)(cyclopropyl)methyl)-1-(3-(dimethylsulfamoyl)benzoyl)-D-prolinamide] came in with an AC1.4 of 1.479 µM.

`O=C(NCc1ccc(C(F)(F)F)cc1)[C@H]1COCCN1C(=O)c1cccc(S(=O)(=O)N2CC3(CC3)C2)c1` [Example 537, (R)-4-(3-((5-azaspiro[2.3]hexan-5-yl)sulfonyl)benzoyl)-N-(4-(trifluoromethyl)benzyl)morpholine-3-carboxamide] displayed an AC1.4 of 2.7025 µM.

As for `O=C(NCc1ccc(C(F)(F)F)cc1)[C@H]1CCCN1C(=O)[C@H]1CCCN(S(=O)(=O)N2CCC2c2cccc(F)c2)C1` (stereo partly drawn) [Example 166, 1-(((3S)-1-((-2-(3-fluorophenyl)-1-azetidinyl)sulfonyl)-3-piperidinyl)carbonyl)-N-(4-(trifluoromethyl)benzyl)-D-prolinamide], the AC1.4 was 0.2807 µM.

In turn, `N#Cc1cccc(C(=O)N2CCC[C@@H]2C(=O)N[C@@H](c2ccc(C(F)(F)F)cc2F)C2CC2)c1` [Example 701, 1-(3-cyanobenzoyl)-N-((R)-cyclopropyl(2-fluoro-4-(trifluoromethyl)phenyl)methyl)-D-prolinamide] had an AC1.4 of 5.643 µM.

On to `C[C@@H](NC(=O)[C@H]1CCCN1C(=O)[C@H]1CCCN(S(=O)(=O)N2CC(C)(O)C2)C1)c1ccc(C(F)(F)F)cc1F` [Example 597, N-((1R)-1-(2-fluoro-4-(trifluoromethyl)phenyl)ethyl)-1-(((3S)-1-((3-hydroxy-3-methyl-1-azetidinyl)sulfonyl)-3-piperidinyl)carbonyl)-D-prolinamide], for which the AC1.4 was determined as 3.5295 µM.

`N#CC1CN(S(=O)(=O)c2cccc(C(=O)N3CCC[C@@H]3C(=O)NCc3ccccc3Cl)c2)C1` [Example 396, N-(2-chlorobenzyl)-1-((3-((3-cyano-1-azetidinyl)sulfonyl)phenyl)carbonyl)-D-prolinamide]: the AC1.4 was 1.3975 µM.

The compound `CC[C@H](NC(=O)[C@H]1CCCN1C(=O)c1cccc(S(=O)(=O)N(C)C)c1)c1ccc(Cl)c(F)c1` [Example 629, N-((1S)-1-(4-chloro-3-fluorophenyl)propyl)-1-(3-(dimethylsulfamoyl)benzoyl)-D-prolinamide] had an AC1.4 of 4.051 µM.

Compound `CS(=O)(=O)c1cccc(C(=O)N2[C@@H](C(=O)N[C@@H](c3ccc(Cl)cc3F)C3COC3)C[C@H]3C[C@H]32)c1` [Example 207, (1R,3R,5R)-N-((R)-(4-chloro-2-fluorophenyl)(3-oxetanyl)methyl)-2-(3-(methylsulfonyl)benzoyl)-2-azabicyclo[3.1.0]hexane-3-carboxamide] displayed an AC1.4 of 0.4436 µM.
